# Assay results as given in paper PMC9481563, “Structural insights into the pSer/pThr dependent regulation of the SHP2 tyrosine phosphatase in insulin and CD28 signaling” (Nature Communications, 2022).
# Target: T1, SHP2 catalytic domain (219–528), C459S, wild-type (inactive) (Homo sapiens, UniProt Q06124, C459S)
# T1 construct: SHP2 catalytic domains (219–528 with or without C459S) were sub-cloned into pBH4 vectors; His6 (N); made in house; host or cells: E. coli BL21 (DE3)
# T1 sequence (Q06124 219-528 C459S): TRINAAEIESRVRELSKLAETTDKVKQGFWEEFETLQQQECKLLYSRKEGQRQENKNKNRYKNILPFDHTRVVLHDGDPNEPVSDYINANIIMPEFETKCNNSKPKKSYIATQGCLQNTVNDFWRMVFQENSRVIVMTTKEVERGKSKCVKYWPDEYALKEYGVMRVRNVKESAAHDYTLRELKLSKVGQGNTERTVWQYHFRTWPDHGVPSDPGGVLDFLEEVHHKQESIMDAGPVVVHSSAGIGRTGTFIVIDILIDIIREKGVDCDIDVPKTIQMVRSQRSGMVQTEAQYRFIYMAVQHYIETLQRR
# Assay: Fluorescence polarization titrations, inactive SHP2 catalytic domain
# Assay type: binding
# Settings: competitive FP titration vs CF-ppIRS1 100 nM, protein fixed, unlabelled peptide varied; n = 3 technical replicates
# From the text: The two SH2 domains of PI3KR1 (UniProt P27986; nSH2: 321−433 cSH2: 614–724) were cloned from HEK293T cDNA pool, and subsequently ligated into a modified pET vector encoding maltose binding protein (MBP) tag on the N-terminal and a hexa-His tag on the C-terminal end of the construct. Similarly, the catalytic, tyrosine phosphatase domains of PTPRε (P23469 first domain: 107–399) and PTP1B (P18031; 1–229) were cloned from a HEK293T cDNA pool, and inserted into a pBH4 vector encoding an N-terminal His6 tag (for the final binding experiments, an MBP-tagged version of PTPRε was employed). […] Wild-type C-terminal FLAG-tagged human IRS1 was cloned between HindIII-NotI sites of pcDNA3.1(+) vector (#V79020 Invitrogen, Waltham MA USA). Ser/Ala mutant IRS1 was generated by replacing the region of S616/S636/S666/S736 positions with a cassette carrying S616A/S636A/S666A/S736A mutations. All constructs were validated by complete Sanger sequencing before protein expression and purification. The oligonucleotide sequences used are shown on Supplementary table 4.
# Fluorescence polarization was always measured in triplicates, on black Corning low volume round bottom 384-well plates (with 10 ul volumes), using a BioTek Cytatation 5 reader, with the green fluorescent protein (GFP) cube filter set (ex: 485/20, em: 528/20, gain: 50, height: 7.5). Fluorescence polarization data was evaluated on Origin 2018. The dissociation constants (Kd) were determined by using the appropriate quadratic and cubic equations inserted as a user-defined function and applying nonlinear fit until convergence. The fitting formulae are shown at Supplementary note 1. Kd ratio distributions for Fig. 6 were calculated using a Monte-Carlo approach (Supplementary note 2).
# Supplementary note 1. Curve fitting of fluorescence polarization (FP) measurements.
# To evaluate polarization values from direct and competitive titrations, we used the following fitting formulae in Origin 2018, as detailed below.
# Direct titration curves were fitted according to the following formula: […]
# Where Imin is the minimal anisotropy, Imax is the (asymptotically estimated) maximal intensity. K0 is the starting concentration of the protein, while T0 is the (fixed) concentration of the labelled peptide and Kd is the dissociation constant.
# Competitive titration curves were fitted with a different formula (In addition to those defined above, constants KdT KdB B0 T0 and D0 here refer to the Kd derived from the direct titration, the unknown Kd of the analyte, the labelled peptide concentration, the competitor peptide concentration as well as the protein concentration, respectively).
# The ± sign refers to two different scenarios, depending on the sign of discriminant (KdT > KdB or […]). For unknown analytes, the choice of sign is not arbitrary, as the fitting will not converge unless the appropriate formula is chosen: […]
# Where A, B and C correspond to the following expressions: […]
row,Compound,Kd
1,CC[C@H](C)[C@H](NC(=O)[C@H](CC(N)=O)NC(=O)[C@@H](NC(=O)[C@H](Cc1ccc(OP(=O)(O)O)cc1)NC(=O)[C@H](CCC(=O)O)NC(=O)CNC(=O)[C@@H]1CCCN1C(=O)[C@H](COP(=O)(O)O)NC(=O)[C@H](CCCCN)NC(=O)[C@@H]1CCCN1C(=O)[C@@H](N)CCC(=O)O)C(C)C)C(=O)N[C@@H](CCC(=O)O)C(=O)N[C@@H](Cc1ccccc1)C(=O)O [ppSRev-IRS1],0.72 ± 0.06 µM
2,CSCC[C@H](NC(=O)[C@H](Cc1ccc(OP(=O)(O)O)cc1)NC(=O)[C@H](CC(=O)O)NC(=O)[C@H](CO)NC(=O)[C@H](Cc1c[nH]cn1)NC(=O)[C@H](CC(C)C)NC(=O)[C@H](CC(C)C)NC(=O)[C@H](CCCNC(=N)N)NC(=O)[C@H](CO)NC(=O)[C@@H](N)CCCNC(=N)N)C(=O)N[C@@H](CC(N)=O)C(=O)N[C@@H](CCSC)C(=O)N[C@H](C(=O)N1CCC[C@H]1C(=O)N[C@@H](CCCNC(=N)N)C(=O)N[C@@H](CCCNC(=N)N)C(=O)O)[C@@H](C)OP(=O)(O)O [ppCD28],5.66 ± 0.29 µM
3,CSCC[C@H](NC(=O)[C@@H]1CCCN1C(=O)[C@H](CCSC)NC(=O)[C@H](Cc1ccc(OP(=O)(O)O)cc1)NC(=O)[C@H](CC(=O)O)NC(=O)CNC(=O)[C@H](CO)NC(=O)CNC(=O)[C@H](CCCCN)NC(=O)[C@H](CCCNC(=N)N)NC(=O)CN)C(=O)N[C@@H](CO)C(=O)N1CCC[C@H]1C(=O)N[C@@H](CCCCN)C(=O)N[C@@H](CO)C(=O)O [p0IRS1],255 ± 34.9 µM
4,CC[C@H](C)[C@H](NC(=O)[C@H](CC(N)=O)NC(=O)[C@@H](NC(=O)[C@H](Cc1ccc(OP(=O)(O)O)cc1)NC(=O)[C@H](CCC(=O)O)NC(=O)CNC(=O)[C@@H]1CCCN1C(=O)[C@H](CO)NC(=O)[C@H](CCCCN)NC(=O)[C@@H]1CCCN1C(=O)[C@@H](N)CCC(=O)O)C(C)C)C(=O)N[C@@H](CCC(=O)O)C(=O)N[C@@H](Cc1ccccc1)C(=O)O [p0SRev-IRS1],8.4 ± 0.75 µM
5,CSCC[C@H](NC(=O)[C@H](Cc1ccc(OP(=O)(O)O)cc1)NC(=O)[C@H](CC(=O)O)NC(=O)[C@H](CO)NC(=O)[C@H](Cc1c[nH]cn1)NC(=O)[C@H](CC(C)C)NC(=O)[C@H](CC(C)C)NC(=O)[C@H](CCCNC(=N)N)NC(=O)[C@H](CO)NC(=O)[C@@H](N)CCCNC(=N)N)C(=O)N[C@@H](CC(N)=O)C(=O)N[C@@H](CCSC)C(=O)N[C@H](C(=O)N1CCC[C@H]1C(=O)N[C@@H](CCCNC(=N)N)C(=O)N[C@@H](CCCNC(=N)N)C(=O)O)[C@@H](C)O [p0CD28],39.7 ± 1.81 µM
6,CSCC[C@H](NC(=O)[C@@H]1CCCN1C(=O)[C@H](CCSC)NC(=O)[C@H](Cc1ccc(OP(=O)(O)O)cc1)NC(=O)[C@H](CC(=O)O)NC(=O)CNC(=O)[C@H](CO)NC(=O)CNC(=O)[C@H](CCCCN)NC(=O)[C@H](CCCNC(=N)N)NC(=O)CN)C(=O)N[C@@H](COP(=O)(O)O)C(=O)N1CCC[C@H]1C(=O)N[C@@H](CCCCN)C(=O)N[C@@H](CO)C(=O)O [ppIRS1],5.25 ± 0.3 µM
